According to the Biogen ADME set (Fang et al. 2023):
Values after ≈ are worked out from the molar mass of the structure shown.

Settings: for aqueous solubility: pH 6.8

Structure (SMILES) | MDR1-MDCK efflux ratio | intrinsic clearance, human liver microsomes [mL/min/kg] | intrinsic clearance, rat liver microsomes [mL/min/kg] | aqueous solubility [µg/mL] | fraction unbound, human plasma | fraction unbound, rat plasma
Cc1nnc2ccc(NCCOC3CCCCCC3)nn12 | 1.54 | 49.9 | 901 | – | – | –
Cc1ccn(-c2ccc(NCC3CC3)nn2)n1 | – | 11 | 305 | – | – | –
O=C(Nc1ccc2c3c(cccc13)CC2)c1ccc(-n2cncn2)cc1 | 0.473 | – | – | 0.18 (≈ 0.529 µM) | – | –
Cc1csc(N2CCN(Cc3ccc(OCC(F)(F)F)nc3)CC2)n1 | 0.655 | 22.7 | 106 | 31 (≈ 83.3 µM) | – | –
CC1CCC(O)(CSc2nnnn2C2CC2)CC1 (centres undefined) | 0.616 | 12.7 | 355 | – | – | –
CNC(=O)c1ccc(N(C)C2CCC2)nn1 | 0.586 | 24.8 | 40.3 | 47.3 (≈ 215 µM) | – | –
CC(C)Oc1ccc(C2(C(=O)NC3CCS(=O)(=O)CC3)CCCC2)cc1 | 37.9 | 15.7 | 210 | – | – | –
COc1cc(Nc2cc(-c3cccc(C#N)c3)ccn2)ccc1N1CCN(C)CC1 | 3.85 | 5.88 | 198 | 45.8 (≈ 115 µM) | – | –
Nc1c(F)ccc2cnc(-n3ccc4ccncc43)cc12 | – | 368 | 2360 | – | 0.0517 | 0.0428
NC(CO)(CO)CCc1ccc(Sc2cccc(OCc3ccccc3)c2)cc1Cl | – | 6.33 | 14.2 | – | – | –
O=c1[nH]c2ccccc2n1C1CCN(CCOc2ccccc2)CC1 | 2.14 | 29.6 | 357 | 47.4 (≈ 140 µM) | – | –
CC(=O)Nc1nc(-c2c(C)cc(C)cc2C)cs1 | 0.559 | 24.9 | 2360 | 19.2 (≈ 73.7 µM) | – | –

Next, values leading:

MDR1-MDCK efflux ratio | intrinsic clearance, human liver microsomes [mL/min/kg] | intrinsic clearance, rat liver microsomes [mL/min/kg] | aqueous solubility [µg/mL] | fraction unbound, human plasma | fraction unbound, rat plasma | Structure (SMILES)
0.723 | ≤ 4.74 | 117 | 31.7 (≈ 124 µM) | – | – | O=C(NCc1cnn(-c2ccccc2)c1)C1CCC1
1.25 | 51 | 855 | 55.4 (≈ 185 µM) | – | – | CCc1noc(CN2CCCN(C(C)=O)c3ccccc32)n1
4.2 | 36.5 | 1050 | 58.3 (≈ 183 µM) | – | – | Cc1ccc(C)c2c(O)cc(CN3CC(c4ccccn4)C3)nc12
– | – | – | 1.1 (≈ 3.97 µM) | – | – | O=C(Nc1nc2ccccc2[nH]1)C1CC1c1ccccc1 (centres undefined)
– | – | – | 66.4 (≈ 188 µM) | – | – | CC(=O)N[C@H]1/C(=N\OC(=O)Nc2ccccc2)O[C@H](CO)[C@H](O)[C@@H]1O
59.5 | ≤ 4.74 | 29.3 | 46.3 (≈ 134 µM) | – | – | CC(=O)NCC1CCN(C(=O)c2cncn2-c2ccc(F)cc2)CC1
0.702 | 13.3 | 1600 | – | – | – | CN(Cc1cnc2ccccc2n1)S(=O)(=O)N1CCCC1
– | – | – | 0.68 (≈ 1.55 µM) | – | – | CCOC(=O)C1(Cc2cc(-c3cccc(F)c3)no2)CCN(Cc2ccccc2O)CC1
0.943 | 71.2 | 1610 | – | 0.152 | 0.129 | Cc1noc(C(C)C)c1C(=O)N1CC(C)OC(c2ccccc2)C1 (centres undefined)
0.993 | 13.5 | 103 | 5.11 (≈ 13.5 µM) | – | – | Cc1cccc(OC2CN(C(=O)Cn3c(C)nn(-c4ccccc4)c3=O)C2)c1
16.3 | ≤ 4.74 | ≤ 10.7 | 38 (≈ 155 µM) | – | – | CC(C)C(=O)Nc1ncn(Cc2cccnc2)n1
